Test results reported in US20200348280A1, “METHODS FOR PREDICTING CANCER DRUG RESPONSIVENESS” (Eutropics Pharmaceuticals, Inc., priority 2018, published 2020).

Experiments:
[1] = target: T1, Bcl-xL/Bim heterodimer in Bcl-xL expressing ATH66 cells (Homo sapiens, UniProt Q07817); assay: Flow cytometry HSBXB/Bcl-xL signal after BH3 mimetic treatment; format: cell-based
T1 construct: endogenous in cells; host or cells: ATH66 cells
Excerpt: FIG. 8 consists of two graphs that show how the Bcl-xL selective BH3 mimetic (A1155463) shifts the HSBXB heterodimer signal detected in cancer cells. For each series, the left bar is HSBXB signal and the right bar is total Bcl-xL. […] The term “I/C” on the x-axis of the graph refers to “isotype control.” and the term “CC” on the x-axis of the graph refers to the non-stained or “clean control.” The signal was detected using Flow Cytometry.
In these experiments, Bcl-xL expressing ATH66 cells were treated with the compound for 16 hours, then fixed with paraformaldehyde, permeabilized with non-ionic detergent and stained with HSBXB-FITC and with anti-Bcl-xL-Rhodamine. The signals were resolved using flow cytometry. The ratio of the signals provided the Bcl-xL priming index.

[2] = system: SEV-Bcl-xL-Bim cells; assay: Flow cytometry HSBXB/Bcl-xL signal ratio in SEV-Bcl-xL-Bim cells; format: cell-based, human; settings: 2 hours semi-permeabilized or 16 hours intact cells, flow cytometry (FIG. 14)
Description: In FIG. 14A, human seminal endothelial vesicle cells overexpressing ectopic Bcl-xL and Bim (SEV-Bcl-xL-Bim[ref]) were treated with A-1155463 at the indicated concentrations for 2 hours in semi-permeabilized cells, fixed, and then […] HSBXB or Bcl-xL antibody corrected to IgG-2A isotype. The ratio of the signals (y-axis) were collected flow cytometry. In FIG. 14B, intact SEV-Bcl-xL/Bim cells were treated with A-1155463 for 16 hours, fixed and stained as in FIG. 14A. The ratio of HSBXB and Bcl-xL signal was calculated as a percentage as shown below: […]

[3] = system: BT-474; assay: Drug response (cell viability) in breast cancer cells; format: cell-based; settings: BT-474 human breast cancer cells
Excerpt: (§1) FIG. 16A, and FIG. 16B are graphs showing drug response to A1331852 in breast cancer (BC) cells.
(§2) Drug response to the Bcl-xL inhibitor, A-1331852, or the MEK inhibitor, Selumetinib, was compared in two types of human breast cancer cells, HCC1937 and BT-474, as shown in FIG. 16A and FIG. 16B. […] Immunofluorescence (IF) stainings of the HSBXB antibody and the Bcl-XL inhibitor, A-1331852, are shown in FIG. 17 in untreated human breast cancer cells, HCC1937 and BT-474. IF stainings and relative signal intensity were obtained from human breast cancer cells, HCC1937, treated with or without the A-1331852 inhibitor, or treated with or without the HSBXB antibody, as shown in FIG. 18.

[4] = system: HCC1937; assay: as above; format: cell-based; settings: HCC1937 human breast cancer cells
Excerpt: as §1, §2

[5] = system: HCC1937 cells; assay: Immunofluorescence localization of Bcl-xL and HSBXB; format: cell-based, human; settings: IF (FIG. 19)
Description: A quantitative analysis was performed using the software Zen 2011 (Blue edition, Carl Zeiss). For each panel, the bar at the far left is Mito-BCL-XL, the next bar is Mito-HSBXB, the next bar is Bcl-XL-HSBXB, the next bar is Bcl-XL-DAPI, and the bar on the far right is HSBXB-DAPI. […] Immunofluorescence (IF) stainings of the HSBXB antibody and the Bcl-XL inhibitor, A-1331852, are shown in FIG. 17 in untreated human breast cancer cells, HCC1937 and BT-474. IF stainings and relative signal intensity were obtained from human breast cancer cells, HCC1937, treated with or without the A-1331852 inhibitor, or treated with or without the HSBXB antibody, as shown in FIG. 18.

[6] = target: T2, Bcl-xL-GST/Bim BH3 heterodimer (Homo sapiens, UniProt Q07817); assay: ELISA, inhibition of HSBXB signal on non-covalent Bcl-xL-GST/Bim BH3 heterodimer; format: binding; settings: heterodimers formed with peptide comprising the BH3 domain of Bim; compound added after peptides, before antibody
T2 construct: cloned and mutated to delete their transmembrane domains; made in house; host or cells: E. coli BL21
T2 sequence (Q07817 1-209 limits assumed, one chain of several): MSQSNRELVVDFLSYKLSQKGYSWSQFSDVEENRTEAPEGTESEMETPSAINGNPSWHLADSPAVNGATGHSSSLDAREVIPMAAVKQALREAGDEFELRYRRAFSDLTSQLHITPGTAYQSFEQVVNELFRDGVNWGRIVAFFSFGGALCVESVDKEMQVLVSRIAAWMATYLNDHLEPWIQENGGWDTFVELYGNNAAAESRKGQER
Description: (§3) To further characterize HSBXB, the antibody was assessed under conditions where Bcl-xL/Bim binding, mediated by the BH3 domain of Bim, was inhibited. […] In the experiment shown in FIG. 13A, Bcl-xL-GST was bound to glutathione-coated ELISA plates. Bim-BH3 peptide was then added, or not added as a control, and HSBXB antibody was used to detect complex formation. […] Non-covalent Bcl-xL-GST/Bim BH3 heterodimer was bound to glutathione-coated ELISA plates and treated with ABT-263. ABT-263 was then added to the ELISA plates after addition of peptides and before adding the monoclonal antibody.

[7] = target: T3, Bcl-xL-GST/Full length BIM protein (Homo sapiens, UniProt Q07817); assay: ELISA, inhibition of HSBXB signal on Bcl-xL-GST/full length BIM heterodimer; format: binding; settings: heterodimers formed with full length Bim protein
T3 construct: cloned and mutated to delete their transmembrane domains; made in house; host or cells: E. coli BL21
T3 sequence (Q07817 1-209 limits assumed): as the sequence (Q07817 1-209 limits assumed, one chain of several) above
Description: The compound was added to the ELISA plates after addition of peptides and before adding the monoclonal antibody.
as §3

T1 sequence (Q07817 whole entry, species assumed, one chain of several): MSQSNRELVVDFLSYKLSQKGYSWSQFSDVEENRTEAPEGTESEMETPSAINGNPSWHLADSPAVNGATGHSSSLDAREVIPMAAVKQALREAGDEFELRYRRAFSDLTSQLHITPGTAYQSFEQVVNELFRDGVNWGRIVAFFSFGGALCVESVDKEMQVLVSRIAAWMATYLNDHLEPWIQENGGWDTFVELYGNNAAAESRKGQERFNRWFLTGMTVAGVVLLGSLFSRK

For `CN(C)CC#Cc1ccc(OCCCc2sc(N3CCc4cccc(C(=O)Nc5nc6ccccc6s5)c4C3)nc2C(=O)O)c(F)c1` [A-1155463], the “Bcl-xL priming index (ratio of HSBXB-FITC and anti-Bcl-xL-Rhodamine signals)” value ([1]; ATH66 cells treated for 16 hours, flow cytometry) was “diminish over a time course that coincided with the occurrence of apoptosis”, the HSBXB heterodimer signal ([1]; sub-lethal dose, 16 hours, flow cytometry (FIG. 8)) was “lose signal after 16 hours” and the “HSBXB signal (ratio of HSBXB and Bcl-xL signal)” value [2] was “HSBXB signal shifts”.

In the case of `Cc1c(-c2ccc(N3CCc4cccc(C(=O)Nc5nc6ccccc6s5)c4C3)nc2C(=O)O)cnn1CC12CC3CC(CC(C3)C1)C2` [A-1331852], the cell viability [3] is reported as “decrease in cell viability”, the cell viability [4] is reported as “decrease in cell viability” and the “localization of Bcl-xL and HSBXB” value [5] is reported as “Changes in the localization of Bcl-xL and HSBXB”.

With `CC1(C)CCC(c2ccc(Cl)cc2)=C(CN2CCN(c3ccc(C(=O)NS(=O)(=O)c4ccc(N[C@H](CCN5CCOCC5)CSc5ccccc5)c(S(=O)(=O)C(F)(F)F)c4)cc3)CC2)C1` [ABT-263] the “inhibition of heterodimer antibody (HSBXB) signal” value [6] was “dose-dependent inhibition of heterodimer antibody signal” and the “inhibition of heterodimer antibody (HSBXB) signal” value [7] was “dose-dependent inhibition of heterodimer antibody signal”.
